Converted amounts (≈) assume the structure as drawn.

Experimental findings from ChEMBL document CHEMBL1145675, “Antibacterial activity studies of flavonoids from Salvia palaestina” (1983) are described below.

Type in all cases: functional
For experiment [1], the system named is Pseudomonas aeruginosa. The experiment is described as follows: Antimicrobial activity against Pseudomonas aeruginosa ATCC 1539 by tube dilution method.
The test system of experiment [2] is Klebsiella pneumoniae. Description: Antimicrobial activity against Klebsiella pneumoniae UC57 by disc-diffusion method. (A growth-free zone around the sample is the usual read-out of agar diffusion tests.)
Experiment [3] relates to Staphylococcus epidermidis. The experiment is described as follows: Antimicrobial activity against Staphylococcus epidermidis ATCC 12228 by disc-diffusion method.
The test system of experiment [4] is Proteus vulgaris. The experiment is described as follows: Antimicrobial activity against Proteus vulgaris ATCC 8427 by disc-diffusion method.
The test system of experiment [5] is Escherichia coli. Description: Antimicrobial activity against Escherichia coli ATCC 8739 by disc-diffusion method.
The subject of experiment [6] is Staphylococcus aureus. Description: Antimicrobial activity against Staphylococcus aureus ATCC 6538 by disc-diffusion method.
The subject of experiment [7] is Klebsiella pneumoniae. Description: Antimicrobial activity against Klebsiella pneumoniae UC57 by tube dilution method.
Experiment [8] concerns Staphylococcus aureus. Description: Antimicrobial activity against Staphylococcus aureus ATCC 6538 by tube dilution method.
Experiment [9] concerns Proteus vulgaris. The experiment is described as follows: Antimicrobial activity against Proteus vulgaris ATCC 8427 by tube dilution method.
Experiment [10] concerns Staphylococcus epidermidis. The experiment is described as follows: Antimicrobial activity against Staphylococcus epidermidis ATCC 12228 by tube dilution method.
Experiment [11] relates to Escherichia coli. Description: Antimicrobial activity against Escherichia coli ATCC 8739 by tube dilution method.
In experiment [12] the test system is Pseudomonas aeruginosa. The experiment is described as follows: Antimicrobial activity against Pseudomonas aeruginosa ATCC 1539 by disc-diffusion method.

For orientation: MBC means the smallest concentration meeting the test's criterion for killing. Read a high MBC as weaker bactericidal potency. For orientation: MIC means the smallest concentration in the dilution series that meets the test's criterion for growth inhibition. Read a low MIC as a more susceptible organism. Take `COc1ccc(-c2cc(=O)c3cc(OC)c(OC)cc3o2)cc1OC`: the minimum bactericidal concentration (MBC) against Pseudomonas aeruginosa [1] stood at 250 µg/mL (≈ 730 µM). In addition, in the experiment with Pseudomonas aeruginosa [1], the MIC came out at 125 µg/mL (≈ 365 µM). Besides, the “inhibition zone (IZ)” value (in the experiment on Klebsiella pneumoniae [2]; in [3]; with Proteus vulgaris [4]; in the experiment on Escherichia coli [5]; with Staphylococcus aureus [6]) was under 7 mm in each case.

As to `COc1cc2oc(-c3ccc(O)cc3)cc(=O)c2c(O)c1OC` [CIRSIMARITIN], the minimal bactericidal concentration (MBC) against Pseudomonas aeruginosa [1] is 125 µg/mL (≈ 398 µM); with Klebsiella pneumoniae [7], 90 µg/mL (≈ 286 µM); with Staphylococcus aureus [8] it was 125 µg/mL (≈ 398 µM); against Proteus vulgaris [9] it was 125 µg/mL (≈ 398 µM); in experiment [10], 125 µg/mL (≈ 398 µM); in the experiment on Escherichia coli [11], 90 µg/mL (≈ 286 µM). Besides, the MIC against Pseudomonas aeruginosa [1] came out at 31.2 µg/mL (≈ 99.4 µM); against Klebsiella pneumoniae [7], 45 µg/mL (≈ 143 µM); in the experiment on Staphylococcus aureus [8], 31.2 µg/mL (≈ 99.4 µM); against Proteus vulgaris [9] it was 31.2 µg/mL (≈ 99.4 µM); in experiment [10], 62.5 µg/mL (≈ 199 µM); in the experiment with Escherichia coli [11], 45 µg/mL (≈ 143 µM).

As to `O=c1cc(-c2ccc(O)c(O)c2)oc2cc(O)cc(O)c12` [LUTEOLIN], the MBC with Pseudomonas aeruginosa [1], in the experiment with Klebsiella pneumoniae [7] and in the experiment on Escherichia coli [11] was 500 µg/mL (≈ 1750 µM) throughout. Also, the MIC against Pseudomonas aeruginosa [1], in the experiment with Klebsiella pneumoniae [7] and in the experiment with Escherichia coli [11] was 125 µg/mL (≈ 437 µM) in each case. For the same molecule, the “inhibition zone (IZ)” value (in [3]; in the experiment on Proteus vulgaris [4]; in the experiment with Staphylococcus aureus [6]) was under 7 mm in each case.

For `O=c1cc(-c2ccc(O)c(O)c2)oc2cc(O[C@@H]3O[C@H](CO)[C@@H](O)[C@H](O)[C@H]3O)cc(O)c12` [GALUTEOLIN], the “inhibition zone (IZ)” value (in the experiment on Klebsiella pneumoniae [2]; in experiment [3]; in the experiment with Proteus vulgaris [4]; with Pseudomonas aeruginosa [12]; with Staphylococcus aureus [6]) was under 7 mm in each case. The molecule also showed an MBC against Escherichia coli [11] of 500 µg/mL (≈ 1120 µM). Moreover, the lowest concentration to inhibit growth against Escherichia coli [11] (MIC) was 250 µg/mL (≈ 558 µM).
